Legend:
Assay type in all cases: cell-based
[1] = test system: Burkholderia cepacia (NCTC 10743); assay: pyroglutamine-aminopeptidase activity on gelled medium, Example 9; set-up: key to growth: ++ means good growth; + means moderate growth; +/− means poor growth; NG means no growth
Method: (§1) A gelled medium comprising this substrate is prepared as follows: 30 mg of each substrate are dissolved (heating) in 10 ml of sterile distilled water. Ten ml of this solution are then added to 90 ml of Columbia agar kept molten at 50° C.
(§2) Various strains of microorganisms derived from the NCTC collection (National Collection of Type Cultures, Colindale, UK) were seeded onto the media thus obtained according to the multipoint inoculation described in example 8 above.
(§3) The colonies formed were examined visually after incubation for 24 h and 48 h. The color and the growth of these colonies were noted.

[2] = test system: Enterobacter cloacae (NCTC 11936); assay: as above; set-up: key to growth: ++ means good growth; + means moderate growth; +/− means poor growth; NG means no growth
Method: as §1, §2, §3

[3] = test system: Escherichia coli (NCTC 14018); assay: as above; set-up: key to growth: ++ means good growth; + means moderate growth; +/− means poor growth; NG means no growth
Method: as §1, §2, §3

[4] = test system: Escherichia coli 0157 (NCTC 12079); assay: as above; set-up: key to growth: ++ means good growth; + means moderate growth; +/− means poor growth; NG means no growth
Method: as §1, §2, §3

[5] = test system: Klebsiella pneumonia (NCTC 10896); assay: as above; set-up: key to growth: ++ means good growth; + means moderate growth; +/− means poor growth; NG means no growth
Method: as §1, §2, §3

[6] = test system: Pseudomonas aeruginosa (NCTC 10662); assay: as above; set-up: key to growth: ++ means good growth; + means moderate growth; +/− means poor growth; NG means no growth
Method: as §1, §2, §3

[7] = test system: Salmonella poona (NCTC 4840); assay: as above; set-up: key to growth: ++ means good growth; + means moderate growth; +/− means poor growth; NG means no growth
Method: as §1, §2, §3

[8] = test system: Salmonella typhimurium (NCTC 74); assay: as above; set-up: key to growth: ++ means good growth; + means moderate growth; +/− means poor growth; NG means no growth
Method: as §1, §2, §3

[9] = test system: Serratia marcescens (NCTC 10211); assay: as above; set-up: key to growth: ++ means good growth; + means moderate growth; +/− means poor growth; NG means no growth
Method: as §1, §2, §3

[10] = test system: Shigella sonnei (NCTC 9774); assay: as above; set-up: key to growth: ++ means good growth; + means moderate growth; +/− means poor growth; NG means no growth
Method: as §1, §2, §3

Candida albicans (056) = assay: L-alanine-aminopeptidase activity on gelled medium, Example 3; details: 0.3 g/l
Method: (§4) A gelled medium comprising 300 mg/l of L-Ala-4-AP-10-MA is prepared as follows: 46.37 g of Columbia agar are added to 1 liter of distilled water and then autoclaved, and the substrate is then introduced by means of a stock solution in DMSO. Microorganisms derived from the applicant's collection were seeded onto the medium, by delimitation as three dials, using a suspension at 0.5 McFarland. The dishes were incubated at 37° C. for 48 hours. The colonies formed were examined visually after incubation for 24 and 48 hours. The color of these colonies and also the intensity of this color were noted.

Citrobacter koseri (090) = assay: as above; details: 0.3 g/l
Method: as §4

[11] = test system: Enterococcus faecalis (075); assay: as above; details: 0.3 g/l
Method: as §4

Escherichia coli (032) = assay: as above; details: 0.3 g/l
Method: as §4

[12] = test system: Klebsiella pneumoniae (023); assay: as above; details: 0.3 g/l
Method: as §4

Listeria innocua (036) = assay: as above; details: 0.3 g/l
Method: as §4

Proteus mirabilis (103) = assay: as above; details: 0.3 g/l
Method: as §4

[13] = test system: Staphylococcus aureus (070); assay: as above; details: 0.3 g/l
Method: as §4

[14] = test system: Streptococcus pyogenes (067); assay: as above; details: 0.3 g/l
Method: as §4

[15] = test system: Burkholderia cepacia (NCTC 10743); assay: L-alanine-aminopeptidase activity on gelled medium, Example 8; set-up: key to growth: ++ means good growth; + means moderate growth; +/− means poor growth; NG means no growth
Method: (§5) A gelled medium comprising these three substrates is prepared as follows: 30 mg of each substrate are dissolved (heating) in 10 ml of sterile distilled water. Ten ml of this solution are then added to 90 ml of Columbia agar kept molten at 50° C.
(§6) Various strains of microorganisms derived from the NCTC collection (National Collection of Type Cultures, Colindale, UK) were seeded onto the media thus obtained according to multipoint inoculation: for each strain, a drop of 10 μl of a suspension at 0.5 McFarland is deposited onto each of the culture media.
as §3

[16] = test system: E. coli O157 (NCTC 12079); assay: as above; set-up: key to growth: ++ means good growth; + means moderate growth; +/− means poor growth; NG means no growth
Method: as §5, §6, §3

[17] = test system: Enterobacter cloacae (NCTC 11936); assay: as above; set-up: key to growth: ++ means good growth; + means moderate growth; +/− means poor growth; NG means no growth
Method: as §5, §6, §3

[18] = test system: Enterococcus faecalis (NCTC 12697); assay: as above; set-up: key to growth: ++ means good growth; + means moderate growth; +/− means poor growth; NG means no growth
Method: as §5, §6, §3

[19] = test system: Enterococcus faecalis (NCTC 755); assay: as above; set-up: key to growth: ++ means good growth; + means moderate growth; +/− means poor growth; NG means no growth
Method: as §5, §6, §3

[20] = test system: Enterococcus faecium (NCTC 7171); assay: as above; set-up: key to growth: ++ means good growth; + means moderate growth; +/− means poor growth; NG means no growth
Method: as §5, §6, §3

[21] = test system: Klebsiella pneumoniae (NCTC 10896); assay: as above; set-up: key to growth: ++ means good growth; + means moderate growth; +/− means poor growth; NG means no growth
Method: as §5, §6, §3

[22] = test system: Listeria monocytogenes (NCTC 11994); assay: as above; set-up: key to growth: ++ means good growth; + means moderate growth; +/− means poor growth; NG means no growth
Method: as §5, §6, §3

[23] = test system: Pseudomonas aeruginosa (NCTC 10662); assay: as above; set-up: key to growth: ++ means good growth; + means moderate growth; +/− means poor growth; NG means no growth
Method: as §5, §6, §3

[24] = test system: Salmonella poona (NCTC 4840); assay: as above; set-up: key to growth: ++ means good growth; + means moderate growth; +/− means poor growth; NG means no growth
Method: as §5, §6, §3

[25] = test system: Salmonella typhimurium (NCTC 74); assay: as above; set-up: key to growth: ++ means good growth; + means moderate growth; +/− means poor growth; NG means no growth
Method: as §5, §6, §3

[26] = test system: Serratia marcescens (NCTC 10211); assay: as above; set-up: key to growth: ++ means good growth; + means moderate growth; +/− means poor growth; NG means no growth
Method: as §5, §6, §3

[27] = test system: Shigella sonnei (NCTC 9774); assay: as above; set-up: key to growth: ++ means good growth; + means moderate growth; +/− means poor growth; NG means no growth
Method: as §5, §6, §3

[28] = test system: Staphylococcus aureus (NCTC 11939); assay: as above; set-up: key to growth: ++ means good growth; + means moderate growth; +/− means poor growth; NG means no growth
Method: as §5, §6, §3

[29] = test system: Staphylococcus aureus (NCTC 6571); assay: as above; set-up: key to growth: ++ means good growth; + means moderate growth; +/− means poor growth; NG means no growth
Method: as §5, §6, §3

SMILES: C[n+]1c2ccccc2c(-c2ccc(NC(=O)C3CCC(=O)N3)cc2)c2ccccc21.[Cl-] (centres unmarked) [PG-4-AP-10-MA, pyroglutamyl-9-(4-aminophenyl)-10-methyl-acridine]
- color of colonies ([1]; 24 h): Colorless
- growth ([1]; 24 h): ++
- color of colonies ([1]; 48 h): Pale orange
- growth ([1]; 48 h): ++
- color of colonies ([2]; 24 h): Colorless
- growth ([2]; 24 h): ++
- color of colonies ([2]; 48 h): Pale orange
- growth ([2]; 48 h): ++
- color of colonies ([3]; 24 h): Colorless
- growth ([3]; 24 h): ++
- color of colonies ([3]; 48 h): Colorless
- growth ([3]; 48 h): ++
- color of colonies ([4]; 24 h): Colorless
- growth ([4]; 24 h): ++
- color of colonies ([4]; 48 h): Colorless
- growth ([4]; 48 h): ++
- color of colonies ([5]; 24 h): Colorless
- growth ([5]; 24 h): ++
- color of colonies ([5]; 48 h): Pale orange
- growth ([5]; 48 h): ++
- color of colonies ([6]; 24 h): Colorless
- growth ([6]; 24 h): ++
- color of colonies ([6]; 48 h): Orange
- growth ([6]; 48 h): ++
- color of colonies ([7]; 24 h): Colorless
- growth ([7]; 24 h): ++
- color of colonies ([7]; 48 h): Colorless
- growth ([7]; 48 h): ++
- color of colonies ([8]; 24 h): Colorless
- growth ([8]; 24 h): ++
- color of colonies ([8]; 48 h): Colorless
- growth ([8]; 48 h): ++
- color of colonies ([9]; 24 h): Colorless
- growth ([9]; 24 h): ++
- color of colonies ([9]; 48 h): Pale orange
- growth ([9]; 48 h): ++
- color of colonies ([10]; 24 h): Colorless
- growth ([10]; 24 h): ++
- color of colonies ([10]; 48 h): Colorless
- growth ([10]; 48 h): ++

SMILES: C[C@H](N)C(=O)Nc1ccc(-c2c3ccccc3[n+](C)c3ccccc23)cc1.[Cl-] [L-Ala-4-AP-10-MA, L-alanyl-9-(4-aminophenyl)-10-methylacridinium Chloride]
- Color (Candida albicans (056); 24 H): colorless
- Color (Candida albicans (056); 48 h): colorless
- Color (Citrobacter koseri (090); 24 H): pink-orange
- Intensity (Citrobacter koseri (090); 24 H): 3
- Color (Citrobacter koseri (090); 48 h): pink-orange
- Intensity (Citrobacter koseri (090); 48 h): 3
- Color ([11]; 24 H): pink
- Intensity ([11]; 24 H): traces
- Color ([11]; 48 h): pink-orange
- Intensity ([11]; 48 h): 0.5
- Color (Escherichia coli (032); 24 H): pink-orange
- Intensity (Escherichia coli (032); 24 H): 3.5
- Color (Escherichia coli (032); 48 h): pink-orange
- Intensity (Escherichia coli (032); 48 h): 3.5
- Color ([12]; 24 H): pink-orange
- Intensity ([12]; 24 H): 3
- Color ([12]; 48 h): pink-orange
- Intensity ([12]; 48 h): 3
- Color (Listeria innocua (036); 24 H): colorless
- Color (Listeria innocua (036); 48 h): pink-orange
- Intensity (Listeria innocua (036); 48 h): traces
- Color (Proteus mirabilis (103); 24 H): pink-orange
- Intensity (Proteus mirabilis (103); 24 H): 1
- Color (Proteus mirabilis (103); 48 h): pink-orange
- Intensity (Proteus mirabilis (103); 48 h): 2
- Color ([13]; 24 H): inhibited
- Color ([13]; 48 h): inhibited
- Color ([14]; 24 H): inhibited
- Color ([14]; 48 h): inhibited
- color of colonies ([15]; 24 h): Orange
- growth ([15]; 24 h): ++
- color of colonies ([15]; 48 h): Orange
- growth ([15]; 48 h): ++
- color of colonies ([16]; 24 h): Orange
- growth ([16]; 24 h): ++
- color of colonies ([16]; 48 h): Orange
- growth ([16]; 48 h): ++
- color of colonies ([17]; 24 h): Orange
- growth ([17]; 24 h): ++
- color of colonies ([17]; 48 h): Orange
- growth ([17]; 48 h): ++
- color of colonies ([18]; 24 h): Colorless
- growth ([18]; 24 h): +/−
- color of colonies ([18]; 48 h): Colorless
- growth ([18]; 48 h): +/−
- growth ([19]; 24 h): NG
- growth ([19]; 48 h): NG
- color of colonies ([20]; 24 h): Colorless
- growth ([20]; 24 h): ++
- color of colonies ([20]; 48 h): Colorless
- growth ([20]; 48 h): ++
- color of colonies ([21]; 24 h): Orange
- growth ([21]; 24 h): ++
- color of colonies ([21]; 48 h): Orange
- growth ([21]; 48 h): ++
- color of colonies ([22]; 24 h): Colorless
- growth ([22]; 24 h): ++
- color of colonies ([22]; 48 h): Colorless
- growth ([22]; 48 h): ++
- color of colonies ([23]; 24 h): Orange
- growth ([23]; 24 h): ++
- color of colonies ([23]; 48 h): Orange
- growth ([23]; 48 h): ++
- color of colonies ([24]; 24 h): Orange
- growth ([24]; 24 h): ++
- color of colonies ([24]; 48 h): Orange
- growth ([24]; 48 h): ++
- color of colonies ([25]; 24 h): Orange
- growth ([25]; 24 h): ++
- color of colonies ([25]; 48 h): Orange
- growth ([25]; 48 h): ++
- color of colonies ([26]; 24 h): Orange
- growth ([26]; 24 h): ++
- color of colonies ([26]; 48 h): Orange
- growth ([26]; 48 h): ++
- color of colonies ([27]; 24 h): Orange
- growth ([27]; 24 h): ++
- color of colonies ([27]; 48 h): Orange
- growth ([27]; 48 h): ++
- color of colonies ([28]; 24 h): Colorless
- growth ([28]; 24 h): ++
- color of colonies ([28]; 48 h): Colorless
- growth ([28]; 48 h): ++
- growth ([29]; 24 h): NG
- growth ([29]; 48 h): NG

— patent US7223865B2, “Chromogenic compounds, and use thereof as enzyme substrates” (Biomerieux, priority 2003, dated 2007)
